The term IC50 denotes the concentration that gives 50% inhibition. As a reminder, the EC50 is the concentration needed to bring the measured effect to its halfway point. Low readings indicate an effect from little substance, high ones a need for much substance.

Chain of Voltage-gated potassium channel, KQT; KCNQ2(Kv7.2)/KCNQ3(Kv7.3) (O43526 whole entry): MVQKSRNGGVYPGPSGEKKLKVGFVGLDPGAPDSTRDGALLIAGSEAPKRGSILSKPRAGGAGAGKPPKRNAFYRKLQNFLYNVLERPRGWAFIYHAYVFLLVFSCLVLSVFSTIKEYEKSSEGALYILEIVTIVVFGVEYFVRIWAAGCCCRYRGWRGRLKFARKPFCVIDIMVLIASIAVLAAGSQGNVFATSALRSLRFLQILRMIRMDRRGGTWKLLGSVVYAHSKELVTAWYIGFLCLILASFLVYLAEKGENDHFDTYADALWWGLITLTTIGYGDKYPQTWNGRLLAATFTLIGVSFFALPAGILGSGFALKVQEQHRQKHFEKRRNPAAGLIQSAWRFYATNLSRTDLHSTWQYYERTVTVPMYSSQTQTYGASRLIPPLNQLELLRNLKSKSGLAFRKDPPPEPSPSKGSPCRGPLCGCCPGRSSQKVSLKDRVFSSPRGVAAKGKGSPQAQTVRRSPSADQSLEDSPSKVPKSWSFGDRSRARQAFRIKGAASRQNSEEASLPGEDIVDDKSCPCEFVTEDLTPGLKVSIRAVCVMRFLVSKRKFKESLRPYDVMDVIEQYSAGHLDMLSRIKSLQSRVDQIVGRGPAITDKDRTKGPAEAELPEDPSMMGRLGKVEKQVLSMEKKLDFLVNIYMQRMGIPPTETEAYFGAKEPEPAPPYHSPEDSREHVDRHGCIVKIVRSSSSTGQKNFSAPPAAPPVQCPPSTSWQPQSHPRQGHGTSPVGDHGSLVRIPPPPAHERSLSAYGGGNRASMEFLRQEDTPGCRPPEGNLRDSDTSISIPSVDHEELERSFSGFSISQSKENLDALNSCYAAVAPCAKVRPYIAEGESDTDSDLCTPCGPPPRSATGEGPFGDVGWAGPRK
Chain of Voltage-gated potassium channel, KQT; KCNQ2(Kv7.2)/KCNQ3(Kv7.3) (O43525 whole entry): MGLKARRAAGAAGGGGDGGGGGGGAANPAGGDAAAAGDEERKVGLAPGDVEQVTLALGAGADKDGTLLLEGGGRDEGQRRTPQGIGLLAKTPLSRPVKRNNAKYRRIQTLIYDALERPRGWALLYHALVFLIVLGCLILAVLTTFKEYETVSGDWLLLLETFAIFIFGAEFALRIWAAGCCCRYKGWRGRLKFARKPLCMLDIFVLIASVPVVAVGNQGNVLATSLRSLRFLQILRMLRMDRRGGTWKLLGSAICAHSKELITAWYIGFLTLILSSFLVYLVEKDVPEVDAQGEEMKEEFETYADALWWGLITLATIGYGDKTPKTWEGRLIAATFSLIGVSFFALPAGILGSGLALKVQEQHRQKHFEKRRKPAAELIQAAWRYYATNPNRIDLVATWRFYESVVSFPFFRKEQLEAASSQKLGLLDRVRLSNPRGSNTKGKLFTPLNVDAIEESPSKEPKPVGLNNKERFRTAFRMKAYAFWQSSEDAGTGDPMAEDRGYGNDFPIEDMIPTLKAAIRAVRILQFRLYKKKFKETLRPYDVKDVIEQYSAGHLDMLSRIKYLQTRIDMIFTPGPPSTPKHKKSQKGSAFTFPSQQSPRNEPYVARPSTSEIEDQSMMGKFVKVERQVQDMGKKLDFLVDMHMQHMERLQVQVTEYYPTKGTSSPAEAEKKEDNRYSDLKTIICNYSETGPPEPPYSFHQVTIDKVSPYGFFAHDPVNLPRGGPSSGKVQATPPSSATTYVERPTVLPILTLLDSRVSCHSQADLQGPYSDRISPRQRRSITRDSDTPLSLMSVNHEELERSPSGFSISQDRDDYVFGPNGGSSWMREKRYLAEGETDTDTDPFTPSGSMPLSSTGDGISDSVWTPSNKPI

Tested on in one data set: not listed separately
The experiment in a line: Intrinsic clearance in human liver microsomes measured over 1 hr in presence of NADPH regenerating system. It is filed as ADME. The settings on record: read-out: CLH. (In general: Microsomes from liver hold many membrane-bound enzymes, among them those of drug oxidation.)
Turning to `COCCN(C)c1nc(OC)c(NC(=O)CC(C)(C)C)c(OC)n1`, the CLint scaled is 21 mL/min/kg.
The same measure, in the same setting: the result for `COc1nc(N2CC(F)(F)C2)nc(OC)c1NC(=O)CC(C)(C)C` reads 18.9 mL/min/kg; that for `COc1nc(N2CCSCC2)nc(OC)c1NC(=O)CC(C)(C)C`, 69.6 mL/min/kg.
On the same count and under the same terms, the result for `COc1nc(N2CCCOCC2)nc(OC)c1NC(=O)CC(C)(C)C` reads 24.4 mL/min/kg; that for `COc1nc(N2CCOCC2)nc(OC)c1NC(=O)CC(C)(C)C`, below 10.4 mL/min/kg; that for `COc1nc(N2CCC(F)(F)CC2)nc(OC)c1NC(=O)CC(C)(C)C`, 21.6 mL/min/kg.
Same read-out and setting: in the case of `COc1nc(N2CCCCC2)nc(OC)c1NC(=O)CC(C)(C)C` it was 43.7 mL/min/kg; in that of `CCOC(=O)Nc1ccc(NCc2ccc(F)cc2)cc1N` [EZOGABINE], below 8 mL/min/kg.

The subject of a further data set is Liver microsome. The data set can be described thus: Stability in human liver microsomes in absence of NADPH. The format is ADME.
Settings: not given
Consider `COc1nc(N2CCC(OC)CC2)nc(OC)c1NC(=O)CCC1CCCC1`, for which the Stability result was “Unstable”.

For the next data set, the system named is MDCK. The data set can be described thus: Efflux ratio of permeability from basolateral to apical over apical to basolateral side in MDCK cells transfected with MDR1. The following applies: dog. It is filed as ADME, cell-based, Canis lupus familiaris.
With `COCCN(C)c1nc(OC)c(NC(=O)CC(C)(C)C)c(OC)n1`, the Ratio is given as 1.11.
The same measure, in the same setting: the result for `COc1nc(N2CC(F)(F)C2)nc(OC)c1NC(=O)CC(C)(C)C` reads 1.29; that for `COc1nc(N2CCC(OC)CC2)nc(OC)c1NC(=O)CCC1CCCC1`, 1.21.
Still for that read-out and setting: the result for `COc1nc(N2CCCOCC2)nc(OC)c1NC(=O)CC(C)(C)C` reads 1.25; that for `COc1nc(N2CCOCC2)nc(OC)c1NC(=O)CC(C)(C)C`, 1.11; that for `COc1nc(N2CCC(F)(F)CC2)nc(OC)c1NC(=O)CC(C)(C)C`, 1.29.
On the same count and under the same terms, the result for `COc1nc(N2CCCCC2)nc(OC)c1NC(=O)CC(C)(C)C` reads 1.59; that for `CCOC(=O)Nc1ccc(NCc2ccc(F)cc2)cc1N` [EZOGABINE], 1.13.

Tested on in a further data set: not listed separately
The data set can be described thus: Toxicity in human THLE cells assessed as ATP depletion. It is filed as cell-based.
Settings: not given
Consider `COCCN(C)c1nc(OC)c(NC(=O)CC(C)(C)C)c(OC)n1`, for which the IC50 was above 300000 nM.
As to `COc1nc(N2CC(F)(F)C2)nc(OC)c1NC(=O)CC(C)(C)C`, the IC50 was above 300000 nM.
The same measure, in the same setting: the result for `COc1nc(N2CCC(OC)CC2)nc(OC)c1NC(=O)CCC1CCCC1` reads 80500 nM; that for `COc1nc(N2CCCOCC2)nc(OC)c1NC(=O)CC(C)(C)C`, above 300000 nM; that for `COc1nc(N2CCOCC2)nc(OC)c1NC(=O)CC(C)(C)C`, above 300000 nM.
On the same count and under the same terms, the result for `COc1nc(N2CCC(F)(F)CC2)nc(OC)c1NC(=O)CC(C)(C)C` reads above 300000 nM.
On the same count and under the same terms, the result for `COc1nc(N2CCCCC2)nc(OC)c1NC(=O)CC(C)(C)C` reads above 300000 nM.
On to `CCOC(=O)Nc1ccc(NCc2ccc(F)cc2)cc1N` [EZOGABINE], for which the IC50 is 213000 nM.

Tested on in a further data set: not listed separately
The experiment in a line: Permeability in dog RRCK cells after 2 hrs by transwell assay. The settings on record: mdck, read-out: permeability. It is filed as ADME, cell-based, Canis lupus familiaris, MDCKII-LE.
Turning to `COc1nc(N2CC(F)(F)C2)nc(OC)c1NC(=O)CC(C)(C)C`, the Papp at 2 h is 28 ×10⁻⁶ cm/s.
Still for that read-out and setting: the result for `COc1nc(N2CCC(OC)CC2)nc(OC)c1NC(=O)CCC1CCCC1` reads 15.2 ×10⁻⁶ cm/s; that for `COc1nc(N2CCCOCC2)nc(OC)c1NC(=O)CC(C)(C)C`, 20.2 ×10⁻⁶ cm/s.
For `COc1nc(N2CCOCC2)nc(OC)c1NC(=O)CC(C)(C)C`, the Papp at 2 h worked out at 25.9 ×10⁻⁶ cm/s.
`COc1nc(N2CCCCC2)nc(OC)c1NC(=O)CC(C)(C)C`: the Papp at 2 h was determined as 22.3 ×10⁻⁶ cm/s.
Still for that read-out and setting: the result for `CCOC(=O)Nc1ccc(NCc2ccc(F)cc2)cc1N` [EZOGABINE] reads 34.2 ×10⁻⁶ cm/s.

A further data set concerns the target Voltage-gated potassium channel, KQT; KCNQ2(Kv7.2)/KCNQ3(Kv7.3) (Homo sapiens) (UniProt O43526+O43525). The experiment in a line: (§1) Activation of human Kv7.2/7.3 expressed in CHOK1 cells. It is filed as cell-based. The following applies: CHO-K1.
The compound `COc1nc(N2C[C@@H]3C[C@H]2CO3)nc(OC)c1NC(=O)CC(C)(C)C` displayed a max activation of 101%.
Still for that read-out and setting: the result for `COc1nc(N2CCC(OC)CC2)nc(OC)c1NC(=O)CC1CCCC1` reads 143%; that for `COc1nc(N2CCC(OC)CC2)nc(OC)c1NC(=O)CCC(C)C`, 132%.
On the same count and under the same terms, in the case of `COc1nc(N2CC3(COC3)C2)nc(OC)c1NC(=O)CC(C)(C)C` it was 106%.
Compound `COCCN(C)c1nc(OC)c(NC(=O)CC(C)(C)C)c(OC)n1` gave a max activation of 166%.
The same measure, in the same setting: in the case of `COc1nc(N2CC(F)(F)C2)nc(OC)c1NC(=O)CC(C)(C)C` it was 103%; in that of `COc1nc(N2CCC(OC(C)C)CC2)nc(OC)c1NC(=O)CC(C)(C)C`, 145%; in that of `COc1nc(N2CCC(OC)CC2)nc(OC)c1NC(=O)CC1CCCCC1`, 152%.
Still for that read-out and setting: in the case of `COc1nc(N2CC(OC)C2)nc(OC)c1NC(=O)CC(C)(C)C` it was 103%; in that of `COc1nc(N2CCSCC2)nc(OC)c1NC(=O)CC(C)(C)C`, 92%.
On to `COc1nc(N2CCC(OC)CC2)nc(OC)c1NC(=O)CCC1CCCC1`, for which the max activation is 126%.
The same measure, in the same setting: the result for `COc1nc(N2CCCOCC2)nc(OC)c1NC(=O)CC(C)(C)C` reads 85%; that for `COc1nc(N2CCOCC2)nc(OC)c1NC(=O)CC(C)(C)C`, 95%.
The compound `COc1nc(N2CCC(F)(F)CC2)nc(OC)c1NC(=O)CC(C)(C)C` displayed a max activation of 99%.
Same read-out and setting: in the case of `COc1nc(N2CCCCC2)nc(OC)c1NC(=O)CC(C)(C)C` it was 182%.
Still for that read-out and setting: in the case of `COc1nc(N2CCC(OC)CC2)nc(OC)c1NC(=O)CC(C)C` it was 138%.

A further data set has as its target Voltage-gated potassium channel, KQT; KCNQ2(Kv7.2)/KCNQ3(Kv7.3) (Homo sapiens, UniProt O43525+O43526). The data set is described as §1.
Settings: not given
The format is cell-based, CHO-K1.
In turn, `COc1nc(N2C[C@@H]3C[C@H]2CO3)nc(OC)c1NC(=O)CC(C)(C)C` yielded an EC50 of 1890 nM.
The same measure, in the same setting: the result for `COc1nc(N2CCC(OC)CC2)nc(OC)c1NC(=O)CC1CCCC1` reads 343 nM; that for `COc1nc(N2CCC(OC)CC2)nc(OC)c1NC(=O)CCC(C)C`, 304 nM.
Same read-out and setting: in the case of `COc1nc(N2CC3(COC3)C2)nc(OC)c1NC(=O)CC(C)(C)C` it was 9190 nM; in that of `COCCN(C)c1nc(OC)c(NC(=O)CC(C)(C)C)c(OC)n1`, 206 nM.
On the same count and under the same terms, the result for `COc1nc(N2CC(F)(F)C2)nc(OC)c1NC(=O)CC(C)(C)C` reads 110 nM; that for `COc1nc(N2CCC(OC(C)C)CC2)nc(OC)c1NC(=O)CC(C)(C)C`, 358 nM.
`COc1nc(N2CCC(OC)CC2)nc(OC)c1NC(=O)CC1CCCCC1` came in with an EC50 of 162 nM. This EC50 lies about 2.2-fold lower than the previous one.
Same read-out and setting: in the case of `COc1nc(N2CC(OC)C2)nc(OC)c1NC(=O)CC(C)(C)C` it was 961 nM.
Same read-out and setting: the result for `COc1nc(N2CCSCC2)nc(OC)c1NC(=O)CC(C)(C)C` reads 24 nM; that for `COc1nc(N2CCC(OC)CC2)nc(OC)c1NC(=O)CCC1CCCC1`, 40 nM; that for `COc1nc(N2CCCOCC2)nc(OC)c1NC(=O)CC(C)(C)C`, 62 nM.
On to `COc1nc(N2CCOCC2)nc(OC)c1NC(=O)CC(C)(C)C`, for which the EC50 is 164 nM.
Same read-out and setting: in the case of `COc1nc(N2CCC(F)(F)CC2)nc(OC)c1NC(=O)CC(C)(C)C` it was 50 nM; in that of `COc1nc(N2CCCCC2)nc(OC)c1NC(=O)CC(C)(C)C`, 64 nM; in that of `COc1nc(N2CCC(OC)CC2)nc(OC)c1NC(=O)CC(C)C`, 630 nM.

Source of the values: ChEMBL document CHEMBL3621090, “Discovery of a novel Kv7 channel opener as a treatment for epilepsy” (Bioorg Med Chem Lett, 2015).
